{"source": "patent EP2727911B1", "about": "“Novel means and methods for treating malaria and other parasitic disorders” (Medizinische Hochschule Hannover, priority 2012, dated 2014)", "molecular_target": "T1, Dd myosin-1b (Dictyostelium discoideum, UniProt P34092)", "T1 sequence (P34092 1-1111)": "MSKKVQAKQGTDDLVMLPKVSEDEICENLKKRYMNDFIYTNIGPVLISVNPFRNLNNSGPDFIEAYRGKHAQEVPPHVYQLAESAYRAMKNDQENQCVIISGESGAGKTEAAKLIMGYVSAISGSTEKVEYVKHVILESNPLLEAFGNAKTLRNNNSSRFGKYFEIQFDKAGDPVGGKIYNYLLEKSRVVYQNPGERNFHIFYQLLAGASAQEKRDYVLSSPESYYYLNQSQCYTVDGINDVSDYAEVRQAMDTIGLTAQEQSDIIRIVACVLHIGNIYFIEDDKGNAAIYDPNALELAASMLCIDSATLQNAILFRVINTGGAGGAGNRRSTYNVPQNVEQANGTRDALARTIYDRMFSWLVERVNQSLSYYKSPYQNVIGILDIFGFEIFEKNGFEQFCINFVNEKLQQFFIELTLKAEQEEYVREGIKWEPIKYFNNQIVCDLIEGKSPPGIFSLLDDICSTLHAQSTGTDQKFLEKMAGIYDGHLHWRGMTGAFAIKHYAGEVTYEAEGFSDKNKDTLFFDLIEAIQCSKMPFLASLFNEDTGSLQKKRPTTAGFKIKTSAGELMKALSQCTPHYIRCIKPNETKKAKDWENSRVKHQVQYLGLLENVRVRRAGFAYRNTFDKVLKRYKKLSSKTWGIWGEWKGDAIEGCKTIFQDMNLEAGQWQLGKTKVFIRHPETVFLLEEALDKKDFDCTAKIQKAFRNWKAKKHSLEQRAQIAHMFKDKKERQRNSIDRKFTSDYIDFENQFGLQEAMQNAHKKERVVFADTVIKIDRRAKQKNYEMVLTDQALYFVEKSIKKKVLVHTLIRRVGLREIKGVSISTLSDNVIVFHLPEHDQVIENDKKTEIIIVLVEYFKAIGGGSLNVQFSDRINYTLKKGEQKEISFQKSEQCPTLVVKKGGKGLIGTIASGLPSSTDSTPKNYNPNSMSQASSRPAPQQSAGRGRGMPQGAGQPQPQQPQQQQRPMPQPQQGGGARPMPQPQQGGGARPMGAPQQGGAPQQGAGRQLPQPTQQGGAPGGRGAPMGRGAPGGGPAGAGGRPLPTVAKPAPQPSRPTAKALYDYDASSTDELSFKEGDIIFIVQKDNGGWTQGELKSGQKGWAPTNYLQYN", "assay": "Actin-activated steady state ATPase assay (PK/LDH-coupled, photometric)", "type": "biochemical", "conditions": "in the presence of 30 µM F-actin, nonlinear regression", "experimental": "In this assay, the ATPase activity of Dictyostelium discoideum myosin-1b is determined, preferably at a ligand concentration of 25µM. Furthermore, the IC50 concentration has been determined by measuring ATPase activity as a function of inhibitor concentration. Alternatively Dictyostelium discoideum myosin-2 can be used.\nActin-activated steady state ATPase experiments were performed following the absorbance change during NADH oxidation in a PK/LDH-coupled ATPase assay at 340 nm […] (Trentham (1972); Furch (1998)). The photometric steady state ATPase assay was applied to determine the potency of the small molecule compounds to inhibit the enzymatic activity of myosin. Dd myosin-1b was used as a model system for the target protein (Pf myosin A). All experiments were carried out in the presence of 30 µM F-actin and the corresponding half-maximal inhibitory concentrations (IC50) were determined by nonlinear regression.", "note": "Where a name gives a salt, the structure may show the parent alone.", "data": [{"molecule": "COC(=N)Cc1ccc(O)cc1", "note": "[BIP13, Methyl-2-(4-hydroxyphenyl)acetimidate·hydrochloride]", "values": [{"measurement": "IC50", "value": "8.07 ± 0.8", "unit": "µM"}]}]}
